From BigSolDB 2.1

CC(CO)(CO)C(=O)O
solubility (mole fraction)
Conditions | 288.15 K | 293.15 K | 298.15 K | 303.15 K | 308.15 K | 313.15 K | 318.15 K | 323.15 K | 328.15 K
in DMF | 0.163 | 0.171 | 0.177 | 0.184 | 0.191 | 0.201 | 0.21 | 0.218 | 0.225
in acetone | 0.00255 | 0.00292 | 0.00366 | 0.004 | 0.00477 | 0.00564 | 0.00645 | 0.00753 | 0.00853
in ethanol | 0.0117 | 0.0135 | 0.0155 | 0.0186 | 0.0214 | 0.0254 | 0.0293 | 0.0341 | 0.0386
in ethyl acetate | 0.00042 | 0.00048 | 0.00056 | 0.00072 | 0.00096 | 0.00131 | 0.00163 | 0.00202 | 0.00253
in isopropanol | 0.00755 | 0.00901 | 0.0114 | 0.0131 | 0.0164 | 0.0185 | 0.0209 | 0.0252 | 0.0306
in methanol | 0.0223 | 0.0254 | 0.0288 | 0.0334 | 0.038 | 0.0436 | 0.0498 | 0.0566 | 0.0635
in methyl acetate | 0.00052 | 0.00072 | 0.00094 | 0.00121 | 0.00149 | 0.00186 | 0.00234 | 0.00301 | 0.0041
in n-butanol | 0.00666 | 0.00759 | 0.00911 | 0.0108 | 0.0132 | 0.0155 | 0.0181 | 0.0214 | 0.0257
in n-butyl acetate | 0.00033 | 0.00038 | 0.00046 | 0.00053 | 0.00063 | 0.00075 | 0.00087 | 0.00098 | 0.00113
in n-propanol | 0.00677 | 0.00775 | 0.00939 | 0.0111 | 0.0136 | 0.0161 | 0.0189 | 0.0226 | 0.027
in sec-butanol | 0.0068 | 0.00792 | 0.00935 | 0.0112 | 0.014 | 0.0165 | 0.0191 | 0.0232 | 0.0277
in water | 0.0133 | 0.0152 | 0.0169 | 0.0199 | 0.0231 | 0.0265 | 0.0305 | 0.0349 | 0.0414
